Here are results for 18 compounds from patent publication US8017612B2, “Piperazine compound and use thereof as a HCV polymerase inhibitor” (priority 2006, dated 2011).

In test [1] the target is T1, HCV polymerase (NS5B) type 1b (Hepatitis C virus genotype 1b, UniProt P26663).
T1 construct: a region encoding NS5B (J Virol 1991 March, 65(3), 1105-13, 544 amino acids after deletion of 47 amino acids on the C-terminal); 6xHis (C); made in house; host or cells: Escherichia coli
In words: Assay of enzyme (HCV polymerase) inhibitory activity, type 1b enzyme. Format: biochemical, HCV BK strain (type 1b). A digest of the protocol: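 Rxn: NS5B 1b (BK, ΔC47, His6) 0.5 μg/ml; substrate RNA 5 μg/ml; ATP/GTP/CTP 50 μM, UTP 2 μM + [5,6-3H]UTP; 20 mM Tris pH 7.5, 5 mM MgCl2, 50 mM NaCl, 1 mM EDTA/DTT. 25 °C, 60 min. Stop with TCA/pyrophosphate, filter, scintillation count; IC50 vs. untreated.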

Test [2] addresses T2, HCV polymerase (NS5B) type 1a (Hepatitis C virus genotype 1a, UniProt P26664).
T2 construct: made in house; host or cells: Escherichia coli (by the 'similar method' of the 1b enzyme)
Put plainly: Assay of enzyme (HCV polymerase) inhibitory activity, type 1a enzyme. Type of test: biochemical, HCV type 1a (cloned from the blood of patients). A digest of the protocol: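 NS5B Δ47 C-term His6 (type 1a, 1.5 μg/ml); substrate RNA 5 μg/ml; ATP/GTP/CTP 50 μM, UTP 2 μM + [5,6-3H]UTP; Tris pH 7.5, MgCl2 5 mM; 25° C, 60 min. TCA/pyrophosphate stop, GF/B filter, scintillation. IC50 vs no-compound control.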

Setting [3] is: HCV polymerase inhibitory activity (IC50), 1b, type 1b enzyme 0.5 μg/ml, 25° C., 60 min.
Setting [4] is: HCV polymerase inhibitory activity (IC50), 1a, type 1a enzyme 1.5 μg/ml, 25° C., 60 min.
Setting [5] is: HCV polymerase inhibitory activity IC50, 1b, type 1b enzyme.
The mark [6] stands for this setting: HCV polymerase inhibitory activity IC50, 1a, type 1a enzyme.

In general, IC50 refers to the concentration needed to halve the response being measured. Low values mean higher potency, high ones lower potency. Consider `CC(=O)N1CCN(S(=O)(=O)c2ccc(C(C)C)cc2)C(C(=O)NCCc2c[nH]c3ccccc23)C1` (stereo not drawn) [Example 79, 4-acetyl-1-(4-isopropyl-benzenesulfonyl)-piperazine-2-carboxylic acid [2-(1H-indol-3-yl)-ethyl]-amide], for which the half-maximal inhibitory concentration (IC50) in test [1] (setting [3]) and in test [2] (setting [4]) was greater than 1000 nM each time.
Consider `CC(=O)N1CCN(S(=O)(=O)c2ccc(C(C)C)cc2)C(C(=O)NCc2ccc(-c3cnn(C)c3)cc2)C1` (stereo not drawn) [Example 108, 4-acetyl-1-(4-isopropyl-benzenesulfonyl)-piperazine-2-carboxylic acid 4-(1-methyl-1H-pyrazol-4-yl)-benzylamide], for which the IC50 in test [1] (setting [3]) and in test [2] (setting [4]) was greater than 1000 nM throughout.
Take `CCCc1ccc(CNC(=O)[C@H]2CN(c3cnc4cncnc4n3)CCN2S(=O)(=O)c2ccc(OC(F)(F)F)cc2)s1` [Example 857, (R)-4-pteridin-7-yl-1-(4-trifluoromethoxy-benzenesulfonyl)-piperazine-2-carboxylic acid (5-propyl-thiophen-2-ylmethyl)-amide]: the IC50 in test [1] (setting [5]) and in test [2] (setting [6]) was less than 100 nM in each case.
For the compound `O=C(NCc1ccc(OC(F)F)cc1)[C@H]1CN(c2nc3nc(C4CC4)ncc3s2)CCN1S(=O)(=O)c1ccc(OC(F)(F)C(F)F)cc1` [Example 1018, (R)-4-(5-cyclopropyl-thiazolo[4,5-d]pyrimidin-2-yl)-1-[4-(1,1,2,2-tetrafluoro-ethoxy)-benzenesulfonyl]-piperazine-2-carboxylic acid 4-difluoromethoxy-benzylamide], the IC50 in test [1] (setting [5]) and in test [2] (setting [6]) was less than 100 nM throughout.
For the compound `O=C(NCc1ccc(OC(F)(F)F)cc1)[C@H]1CN(c2nc3nc(Cl)ncc3s2)CCN1S(=O)(=O)c1ccc(OC(F)F)cc1` [Example 918, (R)-4-(5-chloro-thiazolo[4,5-d]pyrimidin-2-yl)-1-(4-difluoromethoxy-benzenesulfonyl)-piperazine-2-carboxylic acid 4-trifluoromethoxy-benzylamide], the IC50 in test [1] (setting [5]) and in test [2] (setting [6]) was less than 100 nM throughout.
Regarding `CC(=O)N1CCN(S(=O)(=O)c2ccc(OCC(F)(F)F)cc2)[C@@H](C(=O)NCc2ccc(C(C)C)cc2)C1` [Example 284, (R)-4-acetyl-1-[4-(2,2,2-trifluoro-ethoxy)-benzenesulfonyl]-piperazine-2-carboxylic acid 4-isopropyl-benzylamide], the IC50 in test [1] (setting [3]) is less than 100 nM; in test [2] (setting [4]) it was 100 to 1000 nM.
For `COc1ccc(S(=O)(=O)N2CCN(C(C)=O)CC2C(=O)NCc2ccc(C(F)(F)F)cc2)cc1` (stereo not drawn) [Example 44, 4-acetyl-1-(4-methoxy-benzenesulfonyl)-piperazine-2-carboxylic acid 4-trifluoromethyl-benzylamide], in that order: greater than 1000 nM and greater than 1000 nM.
In the case of `O=C(O)c1cncc2sc(N3CCN(S(=O)(=O)c4ccc(OC(F)(F)F)cc4)[C@@H](C(=O)NCc4ccc(OC(F)(F)F)cc4)C3)nc12` [Example 1104, 2-[(R)-4-(4-trifluoromethoxy-benzenesulfonyl)-3-(4-trifluoromethoxy-benzylcarbamoyl)-piperazin-1-yl]-thiazolo[5,4-c]pyridine-7-carboxylic acid], the 50% inhibitory concentration (IC50) in test [1] (setting [5]) and in test [2] (setting [6]) was less than 100 nM throughout.
With `CC(=O)N1CCN(S(=O)(=O)c2ccc(-c3ccc(Cl)cc3)s2)C(C(=O)NCc2ccc(C(F)(F)F)cc2)C1` (stereo not drawn) [Example 28, 4-acetyl-1-[5-(4-chloro-phenyl)-thiophene-2-sulfonyl]-piperazine-2-carboxylic acid 4-trifluoromethyl-benzylamide], the IC50 in test [1] (setting [3]) and in test [2] (setting [4]) was greater than 1000 nM throughout.
For `CN(C)c1ccc(CNC(=O)C2CN(C(=O)Cc3ccccn3)CCN2S(=O)(=O)c2ccc(I)cc2)cc1` (stereo not drawn) [Example 153, 1-(4-iodo-benzenesulfonyl)-4-(2-pyridin-2-yl-acetyl)-piperazine-2-carboxylic acid 4-dimethylamino-benzylamide], the IC50 in test [1] (setting [3]) and in test [2] (setting [4]) was greater than 1000 nM in each case.
As to `CCOC(=O)Cn1nnc(CC(=O)N2CCN(S(=O)(=O)c3ccc(OC(F)(F)F)cc3)[C@@H](C(=O)NCc3ccc(C(F)(F)CC)cc3)C2)n1` [Example 532, (5-{2-[(R)-3-[4-(1,1-difluoro-propyl)-benzylcarbamoyl]-4-(4-trifluoromethoxy-benzenesulfonyl)-piperazin-1-yl]-2-oxo-ethyl}-tetrazol-2-yl)-acetic acid ethyl ester], the IC50 in test [1] (setting [3]) and in test [2] (setting [4]) was less than 100 nM in each case.
In the case of `COC(=O)CN1CCN(S(=O)(=O)c2ccc(I)cc2)C(C(=O)NCc2ccc(N(C)C)cc2)C1` (stereo not drawn) [Example 94, [3-(4-dimethylamino-benzylcarbamoyl)-4-(4-iodo-benzenesulfonyl)-piperazin-1-yl]-acetic acid methyl ester], the concentration for half-maximal inhibition (IC50) in test [1] (setting [3]) and in test [2] (setting [4]) was greater than 1000 nM in each case.
`O=C(NCc1ccc(OC(F)(F)F)cc1)[C@H]1CN(c2ccc3ncccc3n2)CCN1S(=O)(=O)c1ccc(OC(F)(F)F)cc1` [Example 793, (R)-4-[1,5]naphthyridin-2-yl-1-(4-trifluoromethoxy-benzenesulfonyl)-piperazine-2-carboxylic acid 4-trifluoromethoxy-benzylamide]: the IC50 in test [1] (setting [5]) and in test [2] (setting [6]) was less than 100 nM in each case.
For `O=C(NCc1ccc(OC(F)(F)F)cc1)[C@H]1CN(c2nc3nc(C4CC4)[nH]c(=O)c3s2)CCN1S(=O)(=O)c1ccc(C(F)(F)F)cc1` [Example 1107, (R)-4-(5-cyclopropyl-7-oxo-6,7-dihydro-thiazolo[4,5-d]pyrimidin-2-yl)-1-(4-trifluoromethyl-benzenesulfonyl)-piperazine-2-carboxylic acid 4-trifluoromethoxy-benzylamide], the values for the IC50 in test [1] (setting [5]) and in test [2] (setting [6]) were less than 100 nM and 100 to 1000 nM, respectively.
In the case of `O=C(NCc1ccc(OC(F)(F)F)cc1)[C@H]1CN(c2nc3nc(C(F)(F)F)ncc3s2)CCN1S(=O)(=O)c1ccc(C2CC2)cc1` [Example 1100, (R)-4-(5-trifluoromethyl-thiazolo[4,5-d]pyrimidin-2-yl)-1-(4-cyclopropyl-benzenesulfonyl)-piperazine-2-carboxylic acid 4-trifluoromethoxy-benzylamide], the half-maximal inhibitory concentration (IC50) in test [1] (setting [5]) and in test [2] (setting [6]) was less than 100 nM in each case.
On to `CCC(F)(F)c1ccc(CNC(=O)[C@H]2CN(c3nc4nc(C)ncc4s3)CCN2S(=O)(=O)c2ccc(C(F)(F)F)cc2)cc1` [Example 935, (R)-4-(5-methyl-thiazolo[4,5-d]pyrimidin-2-yl)-1-(4-trifluoromethyl-benzenesulfonyl)-piperazine-2-carboxylic acid 4-(1,1-difluoro-propyl)-benzylamide], for which the IC50 in test [1] (setting [5]) and in test [2] (setting [6]) was less than 100 nM throughout.
Consider `CC(=O)N1CCN(S(=O)(=O)c2ccc(C(C)C)cc2)[C@@H](C(=O)NCCc2ccc(Cl)cc2)C1` [Example 138, (R)-4-acetyl-1-(4-isopropyl-benzenesulfonyl)-piperazine-2-carboxylic acid [2-(4-chloro-phenyl)-ethyl]-amide], for which the IC50 in test [1] (setting [3]) and in test [2] (setting [4]) was greater than 1000 nM in each case.
With `CC(=O)N1CCN(S(=O)(=O)c2ccc(OC(F)(F)F)cc2)[C@@H](C(=O)NCc2ccc(-c3cccs3)s2)C1` [Example 622, (R)-4-acetyl-1-(4-trifluoromethoxy-benzenesulfonyl)-piperazine-2-carboxylic acid ([2,2′]bithiophenyl-5-ylmethyl)-amide], the IC50 was 100 to 1000 nM in test [1] (setting [3]) and less than 100 nM in test [2] (setting [4]).
